Experimental data from patent US20250042912A1, “NOVEL NON-FLUORINATED QUINOLONE COMPOUND AND USE THEREOF” (priority 2021, published 2025).
Converted amounts (≈) assume the structure as drawn.

Tests used:
IL-6 = test: Acne model in mice: IL-6 level in left ear tissue; format: in vivo, Balb/C mice
Protocol: (§1) Experimental strain: Propionibacterium acnes ATCC 6919 (Beijing Biobw Biotechnology Co., Ltd.) Experimental animals: Balb/C mice (Zhejiang Vital River Laboratory Animal Technology Co., Ltd.) Balb/C mice were grouped and numbered, and adaptively fed for one week. On the day of modeling, Propionibacterium acnes was taken, and OD600 was measured using a microplate reader. BH1 culture medium was diluted to OD600=1 (about 5×10^8 CFU/mL), centrifuged to discard supernatant, and the remaining culture was diluted to 1×10^8 CFU/mL with PBS. Once the molding began, the mice were anesthetized with a small animal anesthesia machine, the air flow and isoflurane content of the anesthesia machine were adjusted, and the mice were placed in an anesthesia induction chamber for anesthesia induction. […] Mouse BCA protein detection: after Propionibacterium acnes was injected for 48 hours, the BCA protein detection was detected by using the BCA protein concentration assay kit. The left ear of mouse was homogenized with 1 mL of PBS and the dilution factor equivalent to a mass volume ratio of 1:9 was calculated, then centrifuged at 1500 g for 10 minutes. […] […] was measured with a microplate reader, the standard curves were plotted, and the BCA concentrations were calculated. […]

[1] = test system: Propionibacterium acnes ATCC 11827; test: Minimum inhibitory concentration (MIC) assay, Propionibacterium acnes ATCC 11827; format: cell-based; settings: Cutibacterium acnes, ATCC11827; anaerobic culture 35+/-2°C, 48 hours; read with naked eyes
Protocol: On the day of the experiment, the compound in the flask was dissolved in 100% DMSO until the concentration of mother liquor was 0.4 mg/mL. If the mother liquor was not used on the same day, it was stored at −80° C. for future use. The compound mother liquor and standard antibiotics were subjected to 2-fold gradient dilution with corresponding solvents on a 96-microwell plate (V-bottom) to obtain 100× working solutions (Well 1 to Well 7) in sequence. Among them, the concentrations of the compound were 400 μg/mL, 200 μg/mL, 100 μg/mL, 50 μg/mL, 25 μg/mL, 12.5 μg/mL, 6.25 μg/mL, and 3.125 μg/mL. 100% DMSO was used as growth control (Well 8). As such, the compound motherplate was obtained. Two days before the experiment, anaerobic bacteria (Propionibacterium acnes) stored in a cryogenic tube at −80° C. were scribed on an MBA (Brucella Agar+5% (v/v) defibrillated sheep blood+[…] Hemin+1 μg/mLVitamin K1) plate. The anaerobic bacteria were placed in a 35+/−2° C. anaerobic incubator for 42-48 hours of cultivation. On the day of the experiment, the plate was taken out, clones were picked from the plate and suspended in physiological saline. Then, the turbidity of the bacterial suspension (containing 1.0-2.0×10^8 CFU/mL) was adjusted to OD600=0.2 by a turbidity meter. Then, the adjusted bacterial suspension was diluted to an appropriate concentration with the assay culture medium: about 5×10^5 CFU/mL for aerobic bacteria, and about 1×10^6 CFU/mL for anaerobic bacteria. As such, the inoculating solution was obtained. […] Therefore, the final assay concentrations of the compound were 4 μg/mL, 2 μg/mL, 1 μg/mL, 0.5 μg/mL, 0.25 μg/mL, 0.125 μg/mL, 0.06 μg/mL and 0.03 μg/mL. The total volume of each well on the assay plate was 200 μL: containing 1% DMSO, about 5×10^5 CFU/mL of aerobic bacteria and about 1×10^6 CFU/mL of anaerobic bacteria. All assay plates for aerobic bacteria were aerobically cultured at 35+/−2° C. for 16 to 20 hours, and all assay plates for anaerobic bacteria were anaerobically cultured in an anaerobic incubator at 35+/−2° C. for 48 hours. Note: for anaerobic bacteria, both the preparation of bacterial solution in step 2 and the inoculation of bacterial solution in step 3 were operated in an anaerobic workstation.

CXCL1/KC = test: Acne model in mice: CXCL1 level in left ear tissue; format: in vivo, Balb/C mice
Protocol: as §1

[2] = Balb/C mice, left ear homogenate, 48 hours after injection of Propionibacterium acnes, 15 μL applied at 4, 20, 28, 44 hours, drugs as hydrochloride
[3] = compared with acne model group, p<0.001, in words

## CN(C)c1cc2c(cn1)-c1ccc3c(=O)c(C(=O)O)cn(C4CC4)c3c1COC2 [Compound 6]
IL-6; [2]
  IL-6 Mean ± SD: 322.4 ± 43.33 pg/mg
IL-6; [3]
  IL-6 content in the left ear tissues of mice after treatment: significantly reduced
[1]
  MIC: 0.03 µg/mL (≈ 0.0766 µM)
CXCL1/KC; [2]
  CXCL1 Mean ± SD: 191.5 ± 32.71 pg/mg
CXCL1/KC; [3]
  CXCL1 content in the left ear tissues of mice after treatment: significantly reduced
